According to ChEMBL document CHEMBL3885881, “DrugMatrix”:

Species: Rattus norvegicus
Assay: DrugMatrix - Regimen: Daily Repeat
Assay type: toxicity, organism-based, Sprague-Dawley
Set-up: regimen Daily Repeat, gender Male, age 6-8 weeks
Conditions: in vivo, po, route oral GAVAGE, vehicle 100 % WATER; for ABSOLUTE BASOPHIL / ABSOLUTE EOSINOPHIL / ABSOLUTE LYMPHOCYTE / ABSOLUTE MONOCYTE / ABSOLUTE SEGMENTED NEUTROPHIL / BASOPHIL / EOSINOPHIL / ERYTHROCYTE COUNT / HEMATOCRIT / HEMOGLOBIN / LEUKOCYTE COUNT / LYMPHOCYTE / MEAN CORPUSCULAR HEMOGLOBIN / MEAN CORPUSCULAR HEMOGLOBIN CONCENTRATION / MEAN CORPUSCULAR VOLUME / MONOCYTE / NEUTROPHIL / NUCLEATED RED BLOOD CELLS / PLATELET COUNT: tissue Blood; for ALANINE AMINOTRANSFERASE / ALBUMIN / ALKALINE PHOSPHATASE / ASPARTATE AMINOTRANSFERASE / BLOOD UREA NITROGEN / CARBON DIOXIDE / CHLORIDE / CHOLESTEROL / CREATINE PHOSPHOKINASE / CREATININE / GLUCOSE / LACTATE DEHYDROGENASE / LIPASE / PHOSPHORUS / POTASSIUM / SODIUM / TOTAL BILIRUBIN / TOTAL PROTEIN / URIC ACID: tissue Plasma
[1] = 0 mg/kg, 72 h, dose level Control, time 3 day
[2] = 0 mg/kg, 120 h, dose level Control, time 5 day
[3] = 20 mg/kg, 72 h, dose level Low, time 3 day

CN(C)CCC=C1c2ccccc2CCc2ccccc21 [AMITRIPTYLINE]
ABSOLUTE BASOPHIL [1]: 0 CELLS/uL | ABSOLUTE EOSINOPHIL [1]: 58.83 CELLS/uL | ABSOLUTE LYMPHOCYTE [1]: 11823.5 CELLS/uL | ABSOLUTE MONOCYTE [1]: 169 CELLS/uL | ABSOLUTE SEGMENTED NEUTROPHIL [1]: 815.33 CELLS/uL | BASOPHIL [1]: 0% | EOSINOPHIL [1]: 0.5% | ERYTHROCYTE COUNT [1]: 5.52 x10E6/uL | HEMATOCRIT [1]: 35.77% | HEMOGLOBIN [1]: 14.28 G/DL | LEUKOCYTE COUNT [1]: 12.87 x10E3/uL | LYMPHOCYTE [1]: 91.67% | MEAN CORPUSCULAR HEMOGLOBIN [1]: 25.92 pg | MEAN CORPUSCULAR HEMOGLOBIN CONCENTRATION [1]: 39.95 G/DL | MEAN CORPUSCULAR VOLUME [1]: 64.85 fL | MONOCYTE [1]: 1.33% | NEUTROPHIL [1]: 6.5% | NUCLEATED RED BLOOD CELLS [1]: 0 /100WBC | PLATELET COUNT [1]: 1246.17 x10E3/uL | ALANINE AMINOTRANSFERASE [1]: 66 u/L | ALBUMIN [1]: 4.25 G/DL | ALKALINE PHOSPHATASE [1]: 416 u/L | ASPARTATE AMINOTRANSFERASE [1]: 106.17 u/L | BLOOD UREA NITROGEN [1]: 12.67 mg/dL | CARBON DIOXIDE [1]: 31.83 mmol/L | CHLORIDE [1]: 102.5 MEQ/L | CHOLESTEROL [1]: 69 mg/dL | CREATINE PHOSPHOKINASE [1]: 601.83 u/L | CREATININE [1]: 0.18 mg/dL | GLUCOSE [1]: 154.5 mg/dL | LACTATE DEHYDROGENASE [1]: 301.83 u/L | LIPASE [1]: 11.17 u/L | PHOSPHORUS [1]: 12.08 mg/dL | POTASSIUM [1]: 6.12 MEQ/L | SODIUM [1]: 145.2 MEQ/L | TOTAL BILIRUBIN [1]: 0.17 mg/dL | TOTAL PROTEIN [1]: 6.1 G/DL | URIC ACID [1]: 1.57 mg/dL | ABSOLUTE BASOPHIL [2]: 0 CELLS/uL | ABSOLUTE EOSINOPHIL [2]: 19.33 CELLS/uL | ABSOLUTE LYMPHOCYTE [2]: 12577.83 CELLS/uL | ABSOLUTE MONOCYTE [2]: 106.33 CELLS/uL | ABSOLUTE SEGMENTED NEUTROPHIL [2]: 896.5 CELLS/uL | BASOPHIL [2]: 0% | EOSINOPHIL [2]: 0.17% | ERYTHROCYTE COUNT [2]: 5.84 x10E6/uL | HEMATOCRIT [2]: 36.88% | HEMOGLOBIN [2]: 14.48 G/DL | LEUKOCYTE COUNT [2]: 13.6 x10E3/uL | LYMPHOCYTE [2]: 92.17% | MEAN CORPUSCULAR HEMOGLOBIN [2]: 24.85 pg | MEAN CORPUSCULAR HEMOGLOBIN CONCENTRATION [2]: 39.3 G/DL | MEAN CORPUSCULAR VOLUME [2]: 63.23 fL | MONOCYTE [2]: 0.83% | NEUTROPHIL [2]: 6.83% | NUCLEATED RED BLOOD CELLS [2]: 0 /100WBC | PLATELET COUNT [2]: 1223.5 x10E3/uL | ALANINE AMINOTRANSFERASE [2]: 55.33 u/L | ALBUMIN [2]: 4.08 G/DL | ALKALINE PHOSPHATASE [2]: 355.5 u/L | ASPARTATE AMINOTRANSFERASE [2]: 87.67 u/L | BLOOD UREA NITROGEN [2]: 15.33 mg/dL | CARBON DIOXIDE [2]: 33.83 mmol/L | CHLORIDE [2]: 99.67 MEQ/L | CHOLESTEROL [2]: 72.17 mg/dL | CREATINE PHOSPHOKINASE [2]: 268.33 u/L | CREATININE [2]: 0.15 mg/dL | GLUCOSE [2]: 152.5 mg/dL | LACTATE DEHYDROGENASE [2]: 212.67 u/L | LIPASE [2]: 10.83 u/L | PHOSPHORUS [2]: 11.65 mg/dL | POTASSIUM [2]: 6.73 MEQ/L | SODIUM [2]: 142.43 MEQ/L | TOTAL BILIRUBIN [2]: 0.23 mg/dL | TOTAL PROTEIN [2]: 6.07 G/DL | URIC ACID [2]: 1.7 mg/dL | ABSOLUTE BASOPHIL [3]: 0 CELLS/uL | ABSOLUTE EOSINOPHIL [3]: 43.67 CELLS/uL | ABSOLUTE LYMPHOCYTE [3]: 12245.67 CELLS/uL | ABSOLUTE MONOCYTE [3]: 111.33 CELLS/uL | ABSOLUTE SEGMENTED NEUTROPHIL [3]: 1432.67 CELLS/uL | BASOPHIL [3]: 0% | EOSINOPHIL [3]: 0.33% | ERYTHROCYTE COUNT [3]: 5.6 x10E6/uL | HEMATOCRIT [3]: 36.3% | HEMOGLOBIN [3]: 14.5 G/DL | LEUKOCYTE COUNT [3]: 13.83 x10E3/uL | LYMPHOCYTE [3]: 88.33% | MEAN CORPUSCULAR HEMOGLOBIN [3]: 25.93 pg | MEAN CORPUSCULAR HEMOGLOBIN CONCENTRATION [3]: 39.97 G/DL | MEAN CORPUSCULAR VOLUME [3]: 64.87 fL | MONOCYTE [3]: 0.67% | NEUTROPHIL [3]: 10.67% | NUCLEATED RED BLOOD CELLS [3]: 0 /100WBC | PLATELET COUNT [3]: 1222 x10E3/uL | ALANINE AMINOTRANSFERASE [3]: 53 u/L | ALBUMIN [3]: 4.33 G/DL | ALKALINE PHOSPHATASE [3]: 377.33 u/L | ASPARTATE AMINOTRANSFERASE [3]: 92 u/L | BLOOD UREA NITROGEN [3]: 14.67 mg/dL | CARBON DIOXIDE [3]: 31.33 mmol/L | CHLORIDE [3]: 103 MEQ/L | CHOLESTEROL [3]: 67.33 mg/dL | CREATINE PHOSPHOKINASE [3]: 466 u/L | CREATININE [3]: 0.22 mg/dL | GLUCOSE [3]: 137.33 mg/dL | LACTATE DEHYDROGENASE [3]: 318.67 u/L | LIPASE [3]: 12.67 u/L | PHOSPHORUS [3]: 11.77 mg/dL | POTASSIUM [3]: 6.47 MEQ/L | SODIUM [3]: 145.83 MEQ/L | TOTAL BILIRUBIN [3]: 0.2 mg/dL | TOTAL PROTEIN [3]: 6.03 G/DL | URIC ACID [3]: 1.5 mg/dL
